Test results from paper PMC9852121, “Targeted α-therapy using astatine (^211At)-labeled PSMA1, 5, and 6: a preclinical evaluation as a novel compound” (European Journal of Nuclear Medicine and Molecular Imaging, 2022).
Like-named read-outs stand apart in the source and are kept apart here.

Legend:
[1] = design: method as in PMID 27789722, PMID 27889802; settings: mice; cited from earlier work
[2] = design: method as in PMID 27789722, PMID 27889802; settings: humans; cited from earlier work
[3] = test system: LNCaP cells (high expression of PSMA); test: In vitro cellular uptake analysis (LNCaP versus PC-3 cells); type: cell-based, human; settings: 30 min incubation, Fig. 2; for Cellular uptake, LNCaP cells compared with PC-3 cells: LNCaP high, PC-3 low PSMA expression
Excerpt: Human prostate cancer cell lines, prostatic carcinoma-3 (PC-3) (low expression of PSMA), and lymph node carcinoma of the prostate (LNCaP) (high expression of PSMA) were obtained from the RIKEN Cell Bank (Tsukuba, Japan). Cells were maintained in a culture medium, Roswell Park Memorial Institute 1640 medium (FUJIFILM Wako Pure Chemical Corporation, Osaka, Japan), supplemented with 10% heat-inactivated fetal bovine serum (Gibco) and 1% penicillin-streptomycin (FUJIFILM Wako Pure Chemical). The medium for LNCaP was supplemented with 1% sodium pyruvate (FUJIFILM Wako Pure Chemical) in a culture medium. Cells were seeded in 24-well plates (5 × 10^4/well) and cultured for 2 days. After washing twice with phosphate-buffered saline (PBS) (−), the culture medium was changed to Hanks’ balanced salt solution (+). After treatment with [^211At]PSMA1 or [^211At]PSMA5 (approximately 30–50 kBq/well), cells were washed twice with PBS (–). After washing, all cells were lysed with 0.1 N sodium hydroxide, and the radioactivity of the cells was calculated using a 2480 Wizard^2 γ counter (Perkin Elmer, MA, USA). Protein levels were measured using a plate reader (MultiScan FC, Thermo Fisher) and the BCA Protein Assay Kit (FUJIFILM Wako Pure Chemical). Uptake (%uptake/mg protein) was compared between PC-3 and LNCaP cells at 30 min after incubation with [^211At]PSMA1 or [^211At]PSMA5.

LNCaP xenograft [4] = test: Biodistribution in LNCaP xenograft model (NOD/SCID mice); type: in vivo; settings: for Total excretion in the urine / Total excretion in the feces: Fig. 3 legend, mouse strain not given; for Tumor retention (uptake): about 0.11-0.12 MBq; for Kidney uptake, comparison [211At]PSMA5 versus [211At]PSMA6: 3 h post-injection, NOD/SCID mice
Excerpt: (§1) Non-obese diabetic/severe combined immunodeficiency (NOD/SCID) mice (5 weeks old, male) were purchased from Charles River Japan, Inc. (Atsugi, Japan). LNCaP cells were suspended in a 1:1 mixture of medium and Matrigel (Corning, USA), subcutaneously implanted into the unilateral flank of the mice (approximately 6–10 × 10^6 cells), and used approximately 5 weeks later (range, 4–8 weeks). Institute of Cancer Research (ICR) mice (6 weeks old, male) were purchased from Japan SLC, Inc. (Shizuoka, Japan) and used as a non-tumor-bearing cohort for the evaluation of biodistribution and histology.
High PSMA expression was already confirmed in LNCaP xenografts in our previous study. The brain, thyroid, salivary gland, lung, heart, liver, spleen, pancreas, stomach, small intestine, colon, kidney, bone, testis, blood, urine, feces, and tumor were excised and weighed to evaluate biodistribution after euthanasia at 3 and 24 h after administration. Urine excretion was determined from absorption to filter paper or by urine collection in the cage, and feces were collected from the cage. Radioactivity was measured using a 2480 Wizard^2 γ counter. The detection efficiency for ^211At with the γ counter was calibrated by measurement of the ^211At source whose radioactivity was determined with a Ge semiconductor detector (BE2020, Mirion Technologies (Canberra), Connecticut, USA). Uptake was calculated as the percentage of injected dose (%ID).

LNCaP xenograft [5] = test: Treatment effect in LNCaP xenograft mice (tumor size, body weight); type: in vivo, NOD/SCID mice; settings: single administration 0.4 MBq, versus saline
Excerpt: as §1
LNCaP xenograft mice (body weight = 21.8 ± 5.98 g) were administered [^211At]PSMA5 (0.39 ± 0.03 MBq, 0.002 μg, n = 12), [^211At]PSMA1 (0.40 ± 0.07 MBq, 0.002 μg, n = 5), or saline (n = 10). […] Non-radiolabeled PSMA5 (high mass, 0.02 μg; low mass, 0.002 μg) and PSMA1 (high mass, 0.02 μg; low mass, 0.002 μg) were also administered to LNCaP xenograft mice (each n = 3) and compared with saline-injected mice (n = 3) to assess the absence of antitumor effect by the PSMA compound itself. […] The body weight (g) was also monitored.

[6] = Biodistribution in normal ICR mice; type: in vivo; settings: 3 h post-injection
Excerpt: as §1
High PSMA expression was already confirmed in LNCaP xenografts in our previous study. […] Urine excretion was determined from absorption to filter paper or by urine collection in the cage, and feces were collected from the cage. Radioactivity was measured using a 2480 Wizard^2 γ counter. The detection efficiency for ^211At with the γ counter was calibrated by measurement of the ^211At source whose radioactivity was determined with a Ge semiconductor detector (BE2020, Mirion Technologies (Canberra), Connecticut, USA). Uptake was calculated as the percentage of injected dose (%ID).

LNCaP xenograft [7] = test: Planar imaging with γ camera in LNCaP xenograft mice; type: in vivo, NOD/SCID mice; settings: 3 and 24 h post-injection
Description: Planar imaging was performed using a γ camera system (E-cam, Siemens) at 3 and 24 h after administration, targeting the X-rays emitted from the daughter nuclide ^211Po (energy window: 79 keV ± 20%). Image analysis was performed by setting the regions of interest in the tumor and kidneys using AMIDE software (version 1.0.4).

[8] = Histopathological evaluation of organs in normal ICR mice; type: in vivo; settings: for Histopathology of kidney parenchyma, salivary gland, stomach, thyroid, spleen and small intestine: 8 weeks after 0.4 MBq
Description: (§2) The excised organs and tissues were fixed in a 10% neutral buffered formalin solution. After fixation, paraffin sections were prepared and stained with hematoxylin and eosin. Specimens were evaluated using an integrated microscope (BZ-X810; Keyence Corporation, Osaka, Japan). Histological evaluation was performed by a toxicopathology specialist with the support of KAC Co. Ltd. (Kyoto, Japan).

[9] = Histopathological evaluation of organs in LNCaP xenograft mice; type: in vivo; settings: LNCaP xenograft NOD/SCID mice, 3 and 6 weeks after 0.4 MBq
Description: as §2

[10] = Urine analysis with urinalysis test strips (protein) in normal ICR mice; type: in vivo; settings: for Urine test of protein: individual animals No. 1-3
[11] = Plasma BUN and creatinine (renal function) in ICR mice; type: in vivo; settings: 8 weeks after administration, Supplementary Fig. S2
Description: Plasma was obtained by centrifuging a portion of the blood sample collected at the time of euthanasia and was measured using a dry clinical chemistry analyzer (SPOTCHEM D-00 QR D-02; ARKRAY, Inc., Kyoto, Japan). Blood urea nitrogen (BUN) and creatinine (Cre) levels were also measured. Cre values less than 0.2 were considered 0.2 in the statistical analysis.

[12] = In vivo deastatination / metabolites in blood and urine; design: species or system mice
[13] = design: method as in PMID 27230930; settings: cited from earlier work

For `O=C(O)CC[C@H](NC(=O)N[C@@H](CCCCNC(=O)[C@H](Cc1ccc2ccccc2c1)NC(=O)c1ccc(CNC(=O)[C@H](CCC(=O)O)NC(=O)[C@H](CCC(=O)O)NC(=O)c2ccc([18F])nc2)cc1)C(=O)O)C(=O)O` [[^18F]PSMA-1007], the “Urine excretion in PET” value [1] is given as “high urine excretion” and the “Urine excretion in PET” value [2] is given as “minimal”.
In the case of `O=C(O)CCC(NC(=O)NC(CCCCNC(=O)C(Cc1ccc2ccccc2c1)NC(=O)c1ccc(CNC(=O)CCC(=O)NCCCCC(NC(=O)CNC(=O)Cc2ccc([211At])cc2)C(=O)O)cc1)C(=O)O)C(=O)O` (centres unmarked) [[^211At]PSMA1], the “Cellular uptake, LNCaP cells compared with PC-3 cells” value [3] is reported as “more highly incorporated into LNCaP cells”, the “Total excretion in the urine” value (LNCaP xenograft [4]; 3 h) is reported as 0.49 ± 0.37 %ID and the “Tumor retention (uptake)” value (LNCaP xenograft [4]; 3 h after administration) is reported as 12.4 ± 4.8 %ID/g. For the same compound, the “Total excretion in the feces” value (LNCaP xenograft [4]; 24 h) was 14.0 ± 4.8 %ID, the “Total excretion in the urine” value (LNCaP xenograft [4]; 24 h) was 14.7 ± 10.0 %ID and the “Tumor retention (uptake)” value (LNCaP xenograft [4]; 24 h after administration) was 8.7 ± 3.5 %ID/g. For the same compound, the “Kidney excretion, comparison with [211At]PSMA5 and [211At]PSMA6” value (LNCaP xenograft [4]; mouse, in vivo) was “superior”, the “Changes in body weight” value (LNCaP xenograft [5]) was “No significant changes in body weight” and the “Treatment effect on tumor growth (tumor size)” value (LNCaP xenograft [5]) was “good treatment effect”.
In the case of `O=C(O)CCC(NC(=O)NC(CCCCNC(=O)C(Cc1ccc2ccccc2c1)NC(=O)c1ccc(CNC(=O)C(CCC(=O)O)NC(=O)C(CCC(=O)O)NC(=O)Cc2ccc([211At])cc2)cc1)C(=O)O)C(=O)O` (centres unmarked) [[^211At]PSMA5], the “Cellular uptake, comparison between compounds” value [3] is reported as “higher uptake than [^211At]PSMA1”, the “Cellular uptake, LNCaP cells compared with PC-3 cells” value [3] is reported as “more highly incorporated into LNCaP cells” and the “Total excretion in the urine” value (LNCaP xenograft [4]; 3 h) is reported as 8.26 ± 5.00 %ID. For the same compound, the “Tumor retention (uptake)” value (LNCaP xenograft [4]; 3 h after administration) was 30.6 ± 17.8 %ID/g, the “Kidney uptake, comparison [211At]PSMA5 versus [211At]PSMA6” value (LNCaP xenograft [4]) was “similar” and the “Total excretion in the feces” value (LNCaP xenograft [4]; 24 h) was 35.2 ± 9.2 %ID. The “Total excretion in the urine” value (LNCaP xenograft [4]; 24 h) was 15.33 ± 6.3 %ID, the “Tumor retention (uptake)” value (LNCaP xenograft [4]; 24 h after administration) was 40.7 ± 2.6 %ID/g and the “Tumor uptake, comparison with [211At]PSMA6” value (LNCaP xenograft [4]; mouse, in vivo) was “higher tumor uptake than [^211At]PSMA6”. For the same compound, the “Tumor-to-kidney uptake, comparison with [211At]PSMA6” value (LNCaP xenograft [4]; mouse, in vivo) was “better tumor-to-kidney uptake”, the “Kidney uptake, comparison [211At]PSMA5 versus [211At]PSMA6” value [6] was “similar” and the “Uptake in the tumor xenografts and kidneys on planar images” value (LNCaP xenograft [7]) was “High uptake”. For the same compound, the “Changes in body weight” value (LNCaP xenograft [5]) was “No significant changes in body weight”, the “Treatment effect on tumor growth (tumor size)” value (LNCaP xenograft [5]) was “excellent tumor growth suppression” and the “Mice with regenerated tubules in the cortical area of the kidney” value ([8]; 2 weeks after high dose 1 MBq) was “one out of four”. The “Histopathology of kidney parenchyma, salivary gland, stomach, thyroid, spleen and small intestine” value [8] was “no significant changes”, the “Histopathology of salivary glands and stomach” value [9] was “No significant changes” and the “Histopathology of the kidneys” value [9] was “regenerated tubules were observed in the cortical area in all NOD/SCID mice”. The Proteinuria ([10]; 8 weeks after administration) was “did not observe proteinuria”, the “Urine test of protein” value ([10]; Day 10 after 0.4 MBq) was 30 (1+) mg/dl and the “Urine test of protein” value ([10]; Day 14 after 0.4 MBq) was 30 (1+) mg/dl. For the same compound, the “Urine test of protein” value ([10]; Day 21 after 0.4 MBq) was 30 (1+) mg/dl, the “Urine test of protein” value ([10]; Day 38 after 0.4 MBq) was 30 (1+) mg/dl and the “BUN and Cre levels” value [11] was “did not observe proteinuria or increased BUN and Cre levels”. The “Metabolites, including astatide ions, present in urine (deastatination)” value ([12]; 3 h after injection, mice) was “not more than 1.0 % of the injected doses” and the “Radioactivity in the blood and urine from intact molecules” value ([12]; 3 h post injection) was “most of the radioactivity observed in the blood and urine was from intact molecules”.
In the case of `O=C(O)CC[C@H](NC(=O)N[C@@H](CCCCNC(=O)[C@@H](Cc1ccc2ccccc2c1)NC(=O)c1ccc(CNC(=O)[C@H](CCC(=O)O)NC(=O)[C@H](CCC(=O)O)NC(=O)Cc2ccc([211At])cc2)cc1)C(=O)O)C(=O)O` [[^211At]PSMA6], the “Tumor retention (uptake)” value (LNCaP xenograft [4]; 3 h after administration) is reported as 19.1 ± 4.5 %ID/g, the “Kidney uptake, comparison [211At]PSMA5 versus [211At]PSMA6” value (LNCaP xenograft [4]) is reported as “similar” and the “Total excretion in the feces” value (LNCaP xenograft [4]; 24 h) is reported as 9.78 ± 0.79 %ID. The “Total excretion in the urine” value (LNCaP xenograft [4]; 24 h) was 6.20 ± 1.51 %ID, the “Tumor retention (uptake)” value (LNCaP xenograft [4]; 24 h after administration) was 18.1 ± 2.2 %ID/g and the “Retention in the kidney, comparison with [211At]PSMA5” value (LNCaP xenograft [4]; 24 h post-injection) was “higher retention in the kidney”. For the same compound, the “Kidney uptake, comparison [211At]PSMA5 versus [211At]PSMA6” value [6] was “similar”, the “Histopathology of kidney parenchyma, salivary gland, stomach, thyroid, spleen and small intestine” value [8] was “no significant changes” and the “Urine test of protein” value ([10]; Day 21 after 0.4 MBq) was 30 (1+) mg/dl. The “Urine test of protein” value ([10]; Day 24 after 0.4 MBq) was 100 (2+) mg/dl, the “Urine test of protein” value ([10]; Day 31 after 0.4 MBq) was 30 (1+) mg/dl and the “Urine test of protein” value ([10]; Day 38 after 0.4 MBq) was 30 (1+) mg/dl. For the same compound, the “Urine test of protein” value ([10]; Day 45 after 0.4 MBq) was 30 (1+) mg/dl.
In the case of `O=C(O)CC[C@H](NC(=O)NC(CCCCNC(=O)c1ccc([211At])cc1)C(=O)O)C(=O)O` (stereo partly drawn) [^211At-6, (2S)-2-(3-(1-carboxy-5-(4-211At-astatobenzamido)pentyl)ureido)-pentanedioic acid], the “Kidney findings after treatment” value ([13]; 1.5 MBq) is given as “subcortical atrophy, and degenerative loss of proximal tubules”, the Proteinuria ([13]; animals treated with 1.5 MBq) is given as “developed proteinuria 1–2 months after treatment” and the Proteinuria ([13]; animals treated with 37 kBq) is given as “developed mild proteinuria that was later resolved”.
